From US9487483B2, “Complement pathway modulators and uses thereof” (priority 2012, dated 2016)

Target: Recombinant human factor D (Homo sapiens (Human), UniProt P00746)
Assay: biochemical
Type: biochemical
Conditions: Factor D inhibition data using Method 1; substrate Z-Lys-thiobenzyl, fluorescence readout; read-out: IC50

Chain of Recombinant human factor D (P00746 26-253): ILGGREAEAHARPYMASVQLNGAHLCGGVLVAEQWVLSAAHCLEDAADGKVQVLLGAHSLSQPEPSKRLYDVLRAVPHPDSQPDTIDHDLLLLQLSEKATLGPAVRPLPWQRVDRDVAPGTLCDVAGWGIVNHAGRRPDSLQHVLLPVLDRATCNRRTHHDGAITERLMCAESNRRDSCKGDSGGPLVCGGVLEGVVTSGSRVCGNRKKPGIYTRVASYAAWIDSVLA

Compound | IC50 [nM]
NC(=O)n1cc(NC(=O)N2[C@@H]3C[C@@H]3C[C@H]2C(=O)N[C@@H]2CCC[C@H](C(F)(F)F)C2)c2ccccc21 [Example 26, (1R,3S,5R)-2-Aza-bicyclo[3.1.0]hexane-2,3-dicarboxylic acid 2-[(1-carbamoyl-1H-indol-3-yl)-amide] 3-[((1R,3S)-3-trifluoromethyl-cyclohexyl)-amide]] | 26
CC1(C)CCC[C@@H](NC(=O)[C@@H]2C[C@@H](F)CN2C(=O)Nc2cn(C(N)=O)c3ccccc23)C1 [Example 27, (2S,4R)-4-Fluoro-pyrrolidine-1,2-dicarboxylic acid 1-[(1-carbamoyl-1H-indol-3-yl)-amide] 2-[((R)-3,3-dimethyl-cyclohexyl)-amide]] | 40
NC(=O)c1nn(CC(=O)N2[C@@H]3C[C@@H]3C[C@H]2C(=O)NC2CCCC(O)(C(F)(F)F)C2)c2ccccc12 (stereo partly drawn) [Example 31, 1-{2-[(1R,3S,5R)-3-(3-Hydroxy-3-trifluoromethyl-cyclohexylcarbamoyl)-2-aza-bicyclo[3.1.0]hex-2-yl]-2-oxo-ethyl}-1H-indazole-3-carboxylic acid amide] | 900
CC(=O)c1nn(CC(=O)N2[C@@H]3C[C@@H]3C[C@H]2C(=O)NC2CCCC(OC(F)(F)F)C2)c2ccccc12 (stereo partly drawn) [Example 32, (1R,3S,5R)-2-[2-(3-Acetyl-indazol-1-yl)-acetyl]-2-aza-bicyclo[3.1.0]hexane-3-carboxylic acid (trans-3-trifluoromethoxy-cyclohexyl)-amide] | 63
NC(=O)c1nn(CC(=O)N2[C@@H]3C[C@@H]3C[C@H]2C(=O)NC2CCCC(O)(C(F)(F)F)C2)c2cnccc12 (stereo partly drawn) [Example 34, 1-{2-[(1R,3S,5R)-3-(3-Hydroxy-3-trifluoromethyl-cyclohexylcarbamoyl)-2-aza-bicyclo[3.1.0]hex-2-yl]-2-oxo-ethyl}-1H-pyrazolo[3,4-c]pyridine-3-carboxylic acid amide] | 728
NC(=O)c1nn(CC(=O)N2[C@@H]3C[C@@H]3C[C@H]2C(=O)NC2CCCCC2(F)F)c2cnccc12 (stereo partly drawn) [Example 35, 1-{2-[(1R,3S,5R)-3-(2,2-Difluoro-cyclohexylcarbamoyl)-2-aza-bicyclo[3.1.0]hex-2-yl]-2-oxo-ethyl}-1H-pyrazolo[3,4-c]pyridine-3-carboxylic acid amide] | 774
CC(=O)c1nn(CC(=O)N2[C@@H]3C[C@@H]3C[C@H]2C(=O)NC2CCCC=C2F)c2ccc(OCc3ncccn3)cc12 (stereo partly drawn) [Example 38, (1R,3S,5R)-2-{2-[3-acetyl-5-(pyrimidin-2-ylmethoxy)-indazol-1-yl]-acetyl}-2-aza-bicyclo[3.1.0]hexane-3-carboxylic acid (2-fluoro-cyclohex-2-enyl)-amide] | 282
CO[C@H]1CCC[C@@H](NC(=O)[C@@H]2C[C@H]3C[C@H]3N2C(=O)Cn2nc(C(N)=O)c3ccccc32)C1 [Example 46, 1-{2-[(1R,3S,5R)-3-((1R,3S)-3-Methoxy-cyclohexylcarbamoyl)-2-aza-bicyclo[3.1.0]hex-2-yl]-2-oxo-ethyl}-1H-indazole-3-carboxylic acid amide] | 478
NC(=O)c1nn(CC(=O)N2[C@@H]3C[C@@H]3C[C@H]2C(=O)N[C@@H]2CCC[C@H](C(F)(F)F)C2)c2ccccc12 [Example 49, 1-{2-Oxo-2-[(1R,3S,5R)-3-((1R,3S)-3-trifluoromethyl-cyclohexylcarbamoyl)-2-aza-bicyclo[3.1.0]hex-2-yl]ethyl}-1H-indazole-3-carboxylic acid amide] | 29

Same assay, conditions: read-out: IC50

Compound | IC50 [nM]
Cc1cc2c(C(N)=O)nn(CC(=O)N3[C@@H]4C[C@@H]4C[C@H]3C(=O)NN3CCCC(C)(C)C3)c2cn1 [Example 29, 1{2-[(1R,3S,5R)-3-(3,3-Dimethyl-pipendin-1-ylcarbamoyl)-2-aza-bicyclo[3.1.0]hex-2-yl]-2-oxo-ethyl}-5-methyl-1H-pyrazolo[3,4-c] pyridine-3-carboxylic acid amide] | 28
CC(=O)c1nn(CC(=O)N2[C@@H]3C[C@@H]3C[C@H]2C(=O)NN2CCCC(C)(C)C2)c2ccc(OCc3ncccn3)cc12 [Example 30, (1R,3S,5R)-2-{2-[3-Acetyl-5-(pyrimidin-2-ylmethoxy)-indazol-1-yl]-acetyl}-2-aza-bicyclo[3.1.0] hexane-3-carboxylic acid (3,3-dimethyl-piperidin-1-yl)-amide] | 10
NC(=O)c1nn(CC(=O)N2[C@@H]3C[C@@H]3C[C@H]2C(=O)NC2CCCC(OC(F)(F)F)C2)c2ccccc12 (stereo partly drawn) [Example 33, 1-{2-Oxo-2-[(1R,3S,5R)-3-(trans-3-trifluoromethoxy-cyclohexylcarbamoyl)-2-aza-bicyclo[3.1.0]hex-2-yl]ethyl}-1H-indazole-3-carboxylic acid amide] | 121
NC(=O)c1nn(CC(=O)N2[C@@H]3C[C@@H]3C[C@H]2C(=O)N[C@@H]2CCC[C@H](C(F)(F)F)C2)c2cnccc12 [Example 41, 1-{2-Oxo-2-[(1R,3S,5R)-3-((1R,3S)-3-trifluoromethyl-cyclohexylcarbamoyl)-2-aza-bicyclo[3.1.0]hex-2-yl]-ethyl}-1H-pyrazolo[3,4-c]pyridine-3-carboxylic acid amide] | 114
CO[C@H]1CCC[C@H](NC(=O)[C@@H]2C[C@H]3C[C@H]3N2C(=O)Cn2nc(C(C)=O)c3ccccc32)C1 [Example 42, (1R,3S,5R)-2-[2-(3-Acetyl-indazol-1-yl)-acetyl]-2-aza-bicyclo[3.1.0]hexane-3-carboxylic acid ((1S,3S)-3-methoxy-cyclohexyl)-amide] | 1070
CO[C@@H]1CCC[C@@H](NC(=O)[C@@H]2C[C@H]3C[C@H]3N2C(=O)Cn2nc(C(C)=O)c3ccccc32)C1 [Example 43, (1R,3S,5R)-2-[2-(3-Acetyl-indazol-1-yl)-acetyl]-2-aza-bicyclo[3.1.0]hexane-3-carboxylic acid ((1R,3R)-3-methoxy-cyclohexyl)-amide] | 323
CO[C@@H]1CCC[C@H](NC(=O)[C@@H]2C[C@H]3C[C@H]3N2C(=O)Cn2nc(C(C)=O)c3ccccc32)C1 [Example 44, (1R,3S,5R)-2-[2-(3-Acetyl-indazol-1-yl)-acetyl]-2-aza-bicyclo[3.1.0]hexane-3-carboxylic acid ((1S,3R)-3-methoxy-cyclohexyl)-amide] | 1880
CO[C@H]1CCC[C@@H](NC(=O)[C@@H]2C[C@H]3C[C@H]3N2C(=O)Cn2nc(C(C)=O)c3ccccc32)C1 [Example 45, (1R,3S,5R)-2-[2-(3-Acetyl-indazol-1-yl)-acetyl]-2-aza-bicyclo[3.1.0]hexane-3-carboxylic acid ((1R,3S)-3-methoxy-cyclohexyl)-amide] | 405
C[C@H]1CCC[C@@H](NC(=O)[C@@H]2C[C@H]3C[C@H]3N2C(=O)Cn2nc(C(N)=O)c3ccccc32)C1 [Example 47, 1-{2-[(1R,3S,5R)-3-((1R,3S)-3-Methyl-cyclohexylcarbamoyl)-2-aza-bicyclo[3.1.0]hex-2-yl]-2-oxo-ethyl}-1H-indazole-3-carboxylic acid amide] | 91
C[C@@H]1CCC[C@H](NC(=O)[C@@H]2C[C@H]3C[C@H]3N2C(=O)Cn2nc(C(N)=O)c3ccccc32)C1 [Example 48, 1-{2-[(1R,3S,5R)-3-((1S,3R)-3-Methyl-cyclohexylcarbamoyl)-2-aza-bicyclo[3.1.0]hex-2-yl]-2-oxo-ethyl}-1H-indazole-3-carboxylic acid amide] | 1320
